Test results from patent publication US20240245677A1, “SELECTED COMPOUNDS FOR TARGETED DEGRADATION OF BRD9” (C4 THERAPEUTICS, INC., priority 2021, published 2024).

How the values were obtained:
[1] = Hygroscopicity by DVS at 25° C.; format: physicochemical
Description: Hygroscopicity of Form A and Form N was investigated by DVS at 25° C. […] Form A converted to Form K after the DVS test. Form K is a metastable hydrate. It reverted back to Form A after exposure to ambient condition.
Hygroscopicity of the free base Pattern A* and the urea cocrystal Form P were evaluated by DVS at 25° C.

[2] = Solubility study in aqueous media at 37° C.; conditions: for Solubility: target 10 mg/5 mL, LOQ: 50 μg/mL
[3] = pH 4.5, 50 mM acetate buffer, 2 h
[4] = pH 4.5, 50 mM acetate buffer, 24 h

COc1cc(-c2cn(C)c(=O)c(C)c2C)cc(OC)c1CN1CC[C@H](N2CCN(c3ccc(N[C@H]4CCC(=O)NC4=O)cc3F)CC2)C(F)(F)C1.NC(N)=O [Urea cocrystal Pattern P]
XRPD after DVS test [1]: No form change
water uptake from 40% RH to 90% RH ([1]; DVS): <90% RH, 1.6% water
water uptake from 40% RH to 95% RH ([1]; DVS): 3.1% water uptake from
1st desorp. (%) ([1]; DVS, 0% RH): 0.0%
2nd sorp. (%) ([1]; DVS, 0% RH): 0.0%
1st desorp. (%) ([1]; DVS, 10% RH): 2.2%
2nd sorp. (%) ([1]; DVS, 10% RH): 1.2%
1st desorp. (%) ([1]; DVS, 20% RH): 3.1%
2nd sorp. (%) ([1]; DVS, 20% RH): 2.8%
1st desorp. (%) ([1]; DVS, 30% RH): 3.7%
2nd sorp. (%) ([1]; DVS, 30% RH): 3.3%
1st desorp. (%) ([1]; DVS, 40% RH): 4.2%
1st sorp. (%) ([1]; DVS, 40% RH): 4.0%
2nd desorp. (%) ([1]; DVS, 40% RH): 4.2%
2nd sorp. (%) ([1]; DVS, 40% RH): 3.7%
1st desorp. (%) ([1]; DVS, 50% RH): 4.5%
1st sorp. (%) ([1]; DVS, 50% RH): 4.2%
2nd desorp. (%) ([1]; DVS, 50% RH): 4.5%
2nd sorp. (%) ([1]; DVS, 50% RH): 4.1%
1st desorp. (%) ([1]; DVS, 60% RH): 4.7%
1st sorp. (%) ([1]; DVS, 60% RH): 4.4%
2nd desorp. (%) ([1]; DVS, 60% RH): 4.7%
2nd sorp. (%) ([1]; DVS, 60% RH): 4.4%
1st desorp. (%) ([1]; DVS, 70% RH): 5.0%
1st sorp. (%) ([1]; DVS, 70% RH): 4.7%
2nd desorp. (%) ([1]; DVS, 70% RH): 5.0%
2nd sorp. (%) ([1]; DVS, 70% RH): 4.8%
1st desorp. (%) ([1]; DVS, 80% RH): 5.2%
1st sorp. (%) ([1]; DVS, 80% RH): 5.1%
2nd desorp. (%) ([1]; DVS, 80% RH): 5.3%
2nd sorp. (%) ([1]; DVS, 80% RH): 5.1%
1st desorp. (%) ([1]; DVS, 90% RH): 5.8%
1st sorp. (%) ([1]; DVS, 90% RH): 5.6%
2nd desorp. (%) ([1]; DVS, 90% RH): 5.8%
2nd sorp. (%) ([1]; DVS, 90% RH): 5.6%
1st desorp. (%) ([1]; DVS, 95% RH): 7.1%
1st sorp. (%) ([1]; DVS, 95% RH): 7.1%
2nd desorp. (%) ([1]; DVS, 95% RH): 7.3%
2nd sorp. (%) ([1]; DVS, 95% RH): 7.3%
pH ([2]; FaSSIF-v1, pH 6.5, 2 h): pH: 6.5
Solubility ([2]; FaSSIF-v1, pH 6.5, 2 h): <LOQ
pH ([2]; FaSSIF-v1, pH 6.5, 24 h): pH: 6.5
Solubility ([2]; FaSSIF-v1, pH 6.5, 24 h): <LOQ
pH ([2]; FeSSIF-v1, pH 5.0, 2 h): pH: 5.0
Solubility ([2]; FeSSIF-v1, pH 5.0, 2 h): 0.28 mg/mL
pH ([2]; FeSSIF-v1, pH 5.0, 24 h): pH: 4.9
Solubility ([2]; FeSSIF-v1, pH 5.0, 24 h): 0.34 mg/mL
pH ([2]; SGF, pH 1.8, 2 h): pH: 2.4
Solubility ([2]; SGF, pH 1.8, 2 h): >2 mg/mL
pH ([2]; SGF, pH 1.8, 24 h): pH: 2.4
Solubility ([2]; SGF, pH 1.8, 24 h): >2 mg/mL
pH ([2]; pH 1.0 (0.1N HCl), 2 h): pH: 1.0
Solubility ([2]; pH 1.0 (0.1N HCl), 2 h): >2 mg/mL
pH ([2]; pH 1.0 (0.1N HCl), 24 h): pH: 1.0
Solubility ([2]; pH 1.0 (0.1N HCl), 24 h): >2 mg/mL
pH [2, 3]: pH: 4.6
Solubility [2, 3]: 0.24 mg/mL
pH [2, 4]: pH: 4.5
Solubility [2, 4]: 0.14 mg/mL
